The target in the test is T1, KDM4A N198A mutant (Homo sapiens, UniProt O75164, N198A).
T1 sequence (O75164 1-1064 N198A): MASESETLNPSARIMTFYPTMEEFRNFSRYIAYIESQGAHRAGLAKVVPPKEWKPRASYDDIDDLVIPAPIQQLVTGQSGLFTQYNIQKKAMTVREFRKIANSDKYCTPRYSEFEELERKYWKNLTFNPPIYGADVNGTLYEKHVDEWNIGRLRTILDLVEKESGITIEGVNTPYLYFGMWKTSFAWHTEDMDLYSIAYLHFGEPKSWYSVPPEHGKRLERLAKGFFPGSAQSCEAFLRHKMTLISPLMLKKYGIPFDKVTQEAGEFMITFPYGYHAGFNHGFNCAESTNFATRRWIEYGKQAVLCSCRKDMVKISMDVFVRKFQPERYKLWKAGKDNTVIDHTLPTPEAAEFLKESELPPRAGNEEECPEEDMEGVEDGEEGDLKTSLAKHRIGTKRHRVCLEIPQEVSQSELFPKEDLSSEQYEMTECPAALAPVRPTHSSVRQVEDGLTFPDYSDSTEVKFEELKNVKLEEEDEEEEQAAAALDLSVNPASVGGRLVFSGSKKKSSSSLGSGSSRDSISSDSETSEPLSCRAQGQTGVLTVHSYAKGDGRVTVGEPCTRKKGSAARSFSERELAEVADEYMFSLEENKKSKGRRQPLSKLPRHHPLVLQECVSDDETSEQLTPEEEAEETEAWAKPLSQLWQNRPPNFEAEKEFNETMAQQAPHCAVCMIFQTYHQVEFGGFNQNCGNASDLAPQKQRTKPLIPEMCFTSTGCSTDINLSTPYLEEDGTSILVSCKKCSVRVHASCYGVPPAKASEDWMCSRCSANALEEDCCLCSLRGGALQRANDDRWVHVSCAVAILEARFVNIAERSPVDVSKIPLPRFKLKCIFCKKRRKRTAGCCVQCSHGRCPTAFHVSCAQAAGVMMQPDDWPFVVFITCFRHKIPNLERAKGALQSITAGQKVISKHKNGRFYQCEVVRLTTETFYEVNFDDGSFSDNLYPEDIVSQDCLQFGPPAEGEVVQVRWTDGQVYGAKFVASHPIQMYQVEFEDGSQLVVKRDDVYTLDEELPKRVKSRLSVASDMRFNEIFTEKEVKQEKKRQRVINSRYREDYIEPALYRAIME
The test can be described thus: MALDI demethylase assay, H3K9me3 substrate peptide, N198A mutant. It counts as biochemical.

Where [1] appears, read: scaffold test under the optimized assay conditions (50 μM 2KG), Figure S7.

These results are taken from PMC6570502 (Chembiochem : a European journal of chemical biology, 2019).

As for `O=C(O)c1ccc(O)c2ncccc12` [IOX1, 5-carboxy-8-hydroxyquinone], the “inhibition of demethylase activity” value under setting [1] was “inhibited”.

Turning to `O=C(O)CNC(=O)C(=O)O` [compound 2, N-oxalylglycine], the “inhibition of demethylase activity” value is, setting by setting: (100 μM compound, 50 μM 2KG, MALDI-MS) “significantly inhibited”; under setting [1], “inhibited”.
